From patent US10059741B2 (priority 2015, dated 2018)
Read-outs that look alike come from different tables or passages of the source. Bridge positions count the residues as written; N and C are the ends. Square brackets hold non-standard residues; d marks the D form. Peptide text beside a SMILES is read from it. R8 = C=CCCCCCC[C@@](C)(N)C(=O)O; S5 = C=CCCC[C@](C)(N)C(=O)O; Nle = CCCC[C@H](N)C(=O)O; Aib = CC(C)(N)C(=O)O

Assays:
[1] = system: H3N2 Perth/16/2009; test: microbe, parasite or virus in culture; format: cell-based, influenza A virus
[2] = in vitro; conditions: dog
[3] = system: H7N9 A/Anhui/1/2013; test: microbe, parasite or virus in culture; format: cell-based, influenza A virus; conditions: read-out: EC50
[4] = system: H5N1 A/Hong Kong/213/2003; test: microbe, parasite or virus in culture; format: cell-based, influenza A virus; conditions: read-out: EC50
[5] = system: H1N1 California/07/2009; test: microbe, parasite or virus in culture; format: cell-based, influenza A virus
[6] = system: influenza virus, various viral strains; test: organism not typed; format: cell-based; conditions: read-out: EC50
[7] = system: H1N1 California/07/2009; test: microbe, parasite or virus in culture; format: cell-based, influenza A virus; remark: listed apart in the source
[8] = system: H1N1 A/Solomon Island/03/2006; format: cell-based, influenza A virus; conditions: read-out: EC50
[9] = system: H3N2 Perth/16/2009; test: microbe, parasite or virus in culture; format: cell-based, influenza A virus; remark: listed apart in the source
[10] = CC50 (μM) H1N1 California/07/2009, Cell cytotoxicity (CC), run with H1N1 California/07/2009
[11] = CC50 (μM) H3N2 Perth/16/2009, Cell cytotoxicity (CC), run with H3N2 Perth/16/2009
[12] = CC50, run with Influenza A H1N1 A/Solomon Is./3/2006-M, Neutral Red
[13] = CC50, run with Influenza A H1N1 A/Solomon Is./3/2006-M, Visual
[14] = CC50, run with Influenza A H1N1 California/07/20/09 (so in the source), later run, Neutral Red
[15] = CC50, run with Influenza A H1N1 California/07/20/09 (so in the source), Visual/Neutral Red
[16] = CC50, run with Influenza A H1N1 California/07/2009, Neutral Red
[17] = CC50, run with Influenza A H1N1 California/07/2009, Visual
[18] = CC50, run with Influenza A H3N2 Perth/16/2006 (so in the source), Neutral Red
[19] = CC50, run with Influenza A H3N2 Perth/16/2006 (so in the source), Visual
[20] = CC50, run with Influenza A H3N2 Perth/16/2009, last run, Neutral Red
[21] = CC50, run with Influenza A H3N2 Perth/16/2009, Visual/Neutral Red
[22] = read-out: EC50 (μM) H3N2 Perth/16/2009
[23] = read-out: EC50 (μM) H1N1 California/07/2009

SMILES | CC50 ([2]; CC50) [µM] | CC50 [2, 10] [µM] | CC50 [2, 11] [µM] | CC50 [2, 12] [µM] | CC50 [2, 13] [µM] | CC50 [2, 14] [µM] | CC50 [2, 15] [µM] | CC50 [2, 16] [µM] | CC50 [2, 17] [µM] | CC50 [2, 18] [µM] | CC50 [2, 19] [µM] | CC50 [2, 20] [µM] | CC50 [2, 21] [µM] | EC50 [3] [µM] | EC50 [4] [µM] | also measured
CCCC[C@H](NC(C)=O)C(=O)N[C@@H](CC(=O)O)C(=O)N[C@H](C(=O)N[C@@H](CC(N)=O)C(=O)N[C@]1(C)CCCCCCC=CCCC[C@@](C)(C(=O)N[C@@H](C)C(=O)N[C@@H](C)C(=O)N[C@@H](C)C(=O)N[C@@H](C)C(=O)N[C@@H](C)C(N)=O)NC(=O)[C@H](C)NC(=O)[C@H](CC(C)C)NC(=O)[C@H](Cc2ccccc2)NC(=O)[C@H](CC(C)C)NC(=O)[C@H](CC(C)C)NC(=O)[C@H]([C@@H](C)O)NC1=O)C(C)C [SP-25] (Ac-[Nle]DVN[R8]TLLFLA[S5]AAAAA-NH2; staple 5-12) | > 50 | > 100 | > 100 | > 100 | > 100 | > 100 | > 100 | > 100 | > 100 | > 100 | > 100 | > 100 | > 100 | 33 | > 50 | EC50 ([1]; Cytopathic effect/toxicity (Visual), MDCK cells, read-out: EC50 (μM) H3N2 Perth/16/2009): < 1.5 µM; EC50 ([1]; Influenza A H3N2 Perth/16/2006 (so in the source), Drug Assay Visual, read-out: EC50): 0.34 µM; EC50 ([5]; Cytopathic effect/toxicity (Neutral red), MDCK cells, read-out: EC50 (μM) H1N1 California/07/2009): < 1.5 µM; EC50 ([5]; Influenza A H1N1 California/07/20/09 (so in the source), later run, Drug Assay Neutral Red, read-out: EC50): 6.6 µM; EC90 ([5]; Influenza A H1N1 California/07/20/09 (so in the source), Drug Assay Visual/Neutral Red): 8.2 µM; EC50 ([5]; Influenza A H1N1 California/07/2009, Drug Assay Neutral Red, read-out: EC50): 1.1 µM; EC50 ([6]; Influenza A H1N1 A/Solomon Is./3/2006-M, Drug Assay Visual): 3.6 µM; EC50 ([7]; Cytopathic effect/toxicity (Visual), MDCK cells, read-out: EC50 (μM) H1N1 California/07/2009): < 1.5 µM; EC50 ([7]; Influenza A H1N1 California/07/2009, Drug Assay Visual, read-out: EC50): 0.57 µM; EC50 ([8]; Influenza A H1N1 A/Solomon Is./3/2006-M, Drug Assay Neutral Red): 6.5 µM; EC50 ([9]; Cytopathic effect/toxicity (Neutral red), MDCK cells, read-out: EC50 (μM) H3N2 Perth/16/2009): < 1.5 µM; EC50 ([9]; Influenza A H3N2 Perth/16/2006 (so in the source), Drug Assay Neutral Red, read-out: EC50): 0.43 µM; EC50 ([9]; Influenza A H3N2 Perth/16/2009, last run, Drug Assay Neutral Red, read-out: EC50): 49 µM; EC90 ([9]; Influenza A H3N2 Perth/16/2009, Drug Assay Visual/Neutral Red): 49 µM
CCCC[C@H](NC(C)=O)C(=O)N[C@@H](CC(=O)O)C(=O)N[C@H](C(=O)N[C@@H](CC(N)=O)C(=O)N[C@@]1(C)CCCC=CCCC[C@@](C)(C(=O)N[C@@H](CC(C)C)C(=O)N[C@@H](C)C(=O)N[C@H](C(=O)N[C@@H](CCC(N)=O)C(=O)N[C@@H](C)C(=O)N[C@@H](C)C(=O)NC(C)(C)C(=O)N[C@@H](C)C(N)=O)C(C)C)NC(=O)[C@H](CC(C)C)NC(=O)[C@H](CC(C)C)NC(=O)[C@H]([C@@H](C)O)NC1=O)C(C)C [SP-22] (Ac-[Nle]DVN[S5]TLL[S5]LAVQAA[Aib]A-NH2; staple 5-9) | > 50 | > 100 | > 100 | > 100 | > 100 | > 100 | > 100 | > 100 | > 100 | > 100 | > 100 | > 100 | > 100 | 13 | > 50 | EC50 ([1]; read-out: EC50): 0.54 µM; EC50 [1, 22]: < 1.5 µM; EC90 [5]: 6.5 µM; EC50 [5, 23]: 1.5 to 10 µM; EC50 [6]: 12 µM; EC50 ([7]; read-out: EC50): 1.8 µM; EC50 [7, 23]: 1.5 to 10 µM; EC50 [8]: 29 µM; EC90 [9]: 59 µM; EC50 [9, 22]: < 1.5 µM
